Measured values: patent US20130205416A1 (priority 2010, published 2013)
Ends that are not written are not given here.

Tested on: A/WSN/33 H1N1 virus
Assay type: cell-based, Influenza A virus

With RRKKWLVFFVIYFFR [FP4, RRKKWLVFFVIYFFR] as the sequence, how does the knockdown read?
Its knockdown is 100%.
